Legend:
VEGF = VEGF production by HUVEC, ELISA of culture supernatants; type: cell-based, human
Experimental: (§1) Cell lines used: non-neoplastic cells derived from human umbilical cord endothelial (HUVEC) and neoplastic cells of melanoma, B16F10 murine tumor. The HUVECs were provided by Dra. Dulcinea Saes Parra Abdalla, Department of Clinical and Toxicological Analyses, FCF-USP's and B16F10 murine melanoma cells, by Prof. Marcia Cominetti Department of Physiology and Molecular Biology of UFSCar. Both strains were grown in RPMI with 10% fetal calf serum. […] The preliminary investigation of the effect on angiogenesis was also made in vitro with HUVEC. The measures were undertaken to study the cell cycle by flow cytometry (propidium iodide and acridine orange) the assessment of mitochondrial activity by confocal microscopy (Mitotracker Red), and measurement of VEGF and PGE2 production by HUVEC, we performed cell culture supernatants by ELISA with commercial antibodies.

B16F10 murine melanoma = assay: CAM model inoculated with B16F10 murine melanoma; type: in vivo
Experimental: After the opening and closing of windows all eggs were replaced in the incubator, with the same initial conditions and maintained for a further seven days, typically. In this interval procedures were carried out for tests of angiogenesis or for research on tumor growth in vivo. The observation of angiogenesis in eggs inoculated with tumor cells followed virtually the same test model of angiogenesis. Exposure to pure MDJ (cis/trans 96% pure from Sigma) or cyclodextrin-carried MDJ made in Example 3 above was performed on day 8, with the remaining eggs in the incubator until day 14. The inoculation with the melanoma cells was performed on day 4, eggs received MDJ pure or cyclodextrin-carried MDJ on the 8th day and remained incubated up to 14 days. During the development of the protocol, the time of inoculation and treatment were adjusted. Care during the collection and to obtain the images were standardized for all experiments.
The typical inoculum was 2×10^4 cells per egg, in a volume of culture medium less than […]. Melamona growth was accompanied by visual inspection of pigmented mass formation on the CAM, the magnifying glass and microscope. […]
Eggs used were measured by sampling and the average volume of 60 mL was maintained throughout the period of testing with a standard deviation below 10%. […] The tests of viability were monitored for up to 10 days. […]

PGE2 = PGE2 production by HUVEC, ELISA of culture supernatants; type: cell-based, human; details: 1×10^4 cells/mL and 2×10^5 cells/mL plating
Experimental: as §1

[1] = Degradation in vivo (applicant's unpublished studies)
HUVEC [2] = assay: Mitochondrial activity of endothelial cells, Mitotracker Red confocal microscopy; type: cell-based, human; details: low-density plating
Experimental: FIGS. 15A-15F each show effect of MDJ on the mitochondrial activity of endothelial cells after 4 h of exposure in low-density plating on glass coverslips 25 mm in 24-well plates, as measured by Mitotracker red fluorescence confocal microscopy, increased 80× (40×+2× digital zoom). The calibration parameters were maintained for all measures. […] Concentrations equal to or greater than 1 mM lead to a decrease in the intensity/area of marking.
FIG. 16: Effect of MDJ on the mitochondrial activity of endothelial cells after 24 hours exposure in low-density plating on glass coverslips 25 mm in 24-well plates, as measured by Mitotracker Red fluorescence in confocal microscope, 40× magnification. The calibration parameters were maintained for all measurements, each point is the average of six independent measurements.
Cell lines used: non-neoplastic cells derived from human umbilical cord endothelial (HUVEC) and neoplastic cells of melanoma, B16F10 murine tumor. The HUVECs were provided by Dra. Dulcinea Saes Parra Abdalla, Department of Clinical and Toxicological Analyses, FCF-USP's and B16F10 murine melanoma cells, by Prof. Marcia Cominetti Department of Physiology and Molecular Biology of UFSCar. Both strains were grown in RPMI with 10% fetal calf serum. […] The preliminary investigation of the effect on angiogenesis was also made in vitro with HUVEC. […]

HUVEC [3] = assay: Cell cycle by flow cytometry (propidium iodide, acridine orange) in HUVEC; type: cell-based, human
Experimental: FIG. 13: Effect of MDJ on the cell cycle in HUVEC after 18 h of exposure in vitro. The concentrations used in each test are shown in graphics measures cell cycle were performed on a BD FACScalibur equipment, after labeling with propidium iodide simple. The staining with acridine orange served as a control of the process of apoptosis.
as §1

[4] = Toxicity observations in the MNNG colon tumor study (histopathology, hematology, clinical chemistry); details: mouse, in vivo, ip
Experimental: (§2) Briefly, Balb/c mice were treated by intrarectal instillations of the carcinogen N-methyl-N′-nitro-N-nitrosoguanidine (MNNG), twice a week for 2 weeks (XX), and were sacrificed 24 weeks after the beginning of the treatment. Ten days before the end of the experiment, the animals of group A (n=10) were treated with daily i.p. injections of cyclodextrin-carried MDJ (10 μL of saline solution with 1 millimolar MDJ) for every 60 grams of body weight. The animals of group B (n=10) were treated by daily intrarectal instillations of cyclodextrin-carried MDJ, at the same dosage. The group C (n=10) was treated with MNNG and with daily i.p. injections of MDJ (diluted at 10% in 100 μL of saline). The animals of the group D were treated with MNNG and by daily intrarectal instillations of MDJ, at the same dosage. The control group E was treated with MNNG alone. The control groups F and G were treated with saline and cyclodextrin-carried MDJ, i.p. and i.r, respectively. The control groups H and I received saline and MDJ, i.p. and i.r, respectively. The dosages of cyclodextrin-carried MDJ and MDJ were based on previous animal pilot studies.
Colon tumor (T), adjacent non-tumor site (NT), macroscopically normal colonic mucosa from non-tumor rats (N) in the same treatment group were obtained. […] Standard hematology and clinical chemistry parameters were also monitored.

HUVEC [5] = assay: MTT cytotoxicity and growth curves in endothelial cells; type: cell-based, human
[6] = system: chemically induced colon tumors; assay: Chemically (MNNG) induced colon tumors in mice: tumor size, PCNA, apoptotic index, CASPASE-3; type: in vivo, Balb/c mice
Experimental: The effect of cyclodextrin-carried MDJ made in Example 3 above was studied in an experimental model of colonic cancer in mice. Apoptosis and cell proliferation, the two most important events related to tumor growth were investigated. The apoptosis and proliferation indexes of colon tumor, adjacent non-cancer tissues and normal colonic tissues were determined. Apoptosis was quantified by apoptotic nuclei counting and CASPASE-3 immunostaining, whereas proliferation was determined by PCNA immunostaining.
The animals were maintained in agreement with the guidelines of Committee on Care and Uses of Laboratory Animals of the National Research Council of the National Institutes of Health (USA). The mice were fed with food and water ad libitum and maintained on hardwood bedding under a 12-h light/dark cycle. Animals were weighed weekly during the experiments. All experiments were approved by the USP Animal Ethics Committee.
as §2
Colon tumor (T), adjacent non-tumor site (NT), macroscopically normal colonic mucosa from non-tumor […] (N) in the same treatment group were obtained. Immunohistochemistry was performed to study cell proliferation by the Proliferating cellular antigen (PCNA) staining and to analyze cell apoptosis by both the apoptotic bodies counting and by the CASPASE-3 staining. Results were expressed and PCNA labeling index (PCNA-Li), Apoptotic Index (AI) and CASPASE-3 Labeling Index (CASPASE-3-Li). Standard hematology and clinical chemistry parameters were also monitored.
Apoptosis was determined by apoptotic nuclei counting. Sections were stained with hematoxylin and eosin to evaluate the number of apoptotic cells per section. The criteria used to recognize apoptotic cells were: shrunk size, loss of contact with surrounding tissues (at times forming the classically described halo) and nuclear condensation as previously described (Yu et al., Gut 2002, 51:480-484). At least 1 000 cells were counted in five random fields and the percentage of cells with apoptotic features was then calculated (apoptotic index or AI). The apoptotic nuclei counts were compared with findings obtained by CASPASE-3 immunostaining in 30 randomly selected areas. A strong correlation between apoptotic nuclei count and CASPASE-3 results was found (r=0.83, P<0.001).
Proliferation was assayed by immunoperoxidase staining for Proliferating Cell Nuclear Antigen (PCNA) as described previously. Briefly, paraffin-embedded sections from each specimen were labeled with PCNA antibody, after microwave antigen retrieval in citrate buffer. Negative controls were run by replacing the primary antibody with non-immune serum. The slides were developed in 3,3-diaminobenzidine tetrahydrochloride (DAB, Dako, Denmark) and counter-stained with Mayer haematoxylin. […]

CAM blood vessels = details: in vivo
Experimental: For the tests with eggs, egg whites were used Gallus gallus incubated in a thermostated incubator at controlled temperature and humidity. The incubation was performed with and without eggs lying giragem. A mark on the upper surface of the bark was used to control this procedure. The eggs were opened on the fourth day of incubation, after careful cleaning of the skin with cotton wool soaked in 70% alcohol. The opening was performed in laminar flow, keeping all your eggs in the same position in which they were hatched, supported on a plastic holder and marked on the upper surface. The experimental procedure was adapted and refined for the project, drawing on the first half of the twentieth century. The description of the method developed
After the opening and closing of windows all eggs were replaced in the incubator, with the same initial conditions and maintained for a further seven days, typically. […]
After brief fixation, the hull was breached and the embryo inert placed on a petri dish. […] In each trial, the image was captured from the fund, kept the lighting and color adjustments in order to standardize the images of the analyzed material. […]
Each region of the same sample was imaged in bright field and dark field, for better observation of details. The growth of the vascular network was analyzed with the program Image J by processing the images in bright field binary images. […]

[7] = system: B16F10 murine melanoma cells; assay: MTT cytotoxicity and growth curves in murine melanoma cells; type: cell-based; details: cultures of murine melanoma

CCCCCC1C(=O)CCC1CC(=O)OC (centres unmarked) [MDJ, methyl 2-(3-oxo-2-pentylcyclopentyl)acetate]
VEGF, pg/mL (2 × 10^6 cells, 4 h) (VEGF; MDJ 1 nM): 566 ± 31 pg/mL | VEGF, pg/mL (2 × 10^6 cells, 4 h) (VEGF; MDJ 10 uM): 319 ± 12 pg/mL | VEGF, pg/mL (2 × 10^6 cells, 4 h) (VEGF; MDJ 100 uM): 450 ± 30 pg/mL | melanoma bodies on CAM (B16F10 murine melanoma; CAM model): dose-dependent involution | survival of eggs inoculated with melanoma cells (B16F10 murine melanoma; eggs with B16F10): partially recovered this survival | PGE2 production by HUVEC (PGE2): no increase in PGE2 production | degradation in vivo [1]: degraded very quickly in vivo | concentrations leading to a decrease in the intensity/area of Mitotracker red marking (HUVEC [2]): ≥ 1 mM | Distribution according to the phases of the cell cycle,% (18 h): Dead cells (HUVEC [3]; MDJ 1 nM): 13% | Distribution according to the phases of the cell cycle,% (18 h): G0/G1 (HUVEC [3]; MDJ 1 nM): 72% | Distribution according to the phases of the cell cycle,% (18 h): G2/S (HUVEC [3]; MDJ 1 nM): 15% | Marking with Acridine Orange,% (18 h) (HUVEC [3]; MDJ 1 nM): 6.2 ± 0.1% | Distribution according to the phases of the cell cycle,% (18 h): Dead cells (HUVEC [3]; MDJ 10 nM): 93% | Distribution according to the phases of the cell cycle,% (18 h): G0/G1 (HUVEC [3]; MDJ 10 nM): 5% | Distribution according to the phases of the cell cycle,% (18 h): G2/S (HUVEC [3]; MDJ 10 nM): 2% | Marking with Acridine Orange,% (18 h) (HUVEC [3]; MDJ 1 uM): 12 ± 0.9% | Distribution according to the phases of the cell cycle,% (18 h): Dead cells (HUVEC [3]; MDJ 10 uM): 7% | Distribution according to the phases of the cell cycle,% (18 h): G0/G1 (HUVEC [3]; MDJ 10 uM): 60% | Distribution according to the phases of the cell cycle,% (18 h): G2/S (HUVEC [3]; MDJ 10 uM): 33% | Marking with Acridine Orange,% (18 h) (HUVEC [3]; MDJ 10 uM): 9.0 ± 0.5% | Distribution according to the phases of the cell cycle,% (18 h): Dead cells (HUVEC [3]; MDJ 100 uM): 8% | Distribution according to the phases of the cell cycle,% (18 h): G0/G1 (HUVEC [3]; MDJ 100 uM): 56% | Distribution according to the phases of the cell cycle,% (18 h): G2/S (HUVEC [3]; MDJ 100 uM): 36% | Marking with Acridine Orange,% (18 h) (HUVEC [3]; MDJ 100 uM): 6.7 ± 0.3% | tolerability of i.p. injections (groups C and H discharged) [4]: early signs or peritonitis | folding time (growth curves) (HUVEC [5]; HUVEC, at concentrations below 1 mM): about 20 h | concentrations at which MTT dye reduction (mitochondrial activity) was maintained at a constant value (HUVEC [5]; confluent HUVEC): less than 1 mM | cell proliferation and apoptosis in normal colonic mucosa and mucosa adjacent to tumors ([6]; MNNG-treated and non-MNNG animals): not associated to any significant changes in cell proliferation and apoptosis | Apoptotic Index (Tumor) ([6]; MNNG-treated mice, daily i.r.): 0.29 ± 0.04 | Caspase-3-Li (tumor) ([6]; MNNG-treated mice, daily i.r.): 0.39 ± 0.11 | Tumor Size ([6]; MNNG-treated mice, daily i.r. instillation): 0.56 mm^2 | PCNA-Li ([6]; colonic tumors, MNNG-treated mice, daily i.r.): 0.41 ± 0.06 | effect on tumor markers ([6]; i.r. administration): mild, but significant reduction in the above tumor markers | tolerability in fertilized eggs (CAM blood vessels): well tolerated by the eggs | toxicity (MTT, growth curves) compared with HUVEC [7]: toxic concentrations were very close
